The structures appear in SMILES notation. Where two headings read alike, the source gives them in different places.

Data set [1] has as its system cerulein-induced acute pancreatitis. Put plainly: In vivo efficacy, cerulein-induced acute pancreatitis murine model. Details: species or system C57BL/6 male mice. An excerpt:
Forty-one male C57BL/6 mice (8-week-old; approximately 24 g) were supplied by Envigo (Barcelona, Spain) (Ref 16512). During the experimental procedure, the animals were identified with a permanent marker (tail code numbers). Upon arrival, the animals were housed in groups of 8–9 animals/cage in polysulfone maintenance cages (480 × 265 × 210 mm, with a surface area of 940 cm^2) with wire tops and wood chip bedding. The animals were kept in an environmentally controlled room (ventilation, temperature 22 ± 2 °C, and humidity 35–65%) on a 12 h light/dark cycle. They underwent a period of 7 days of acclimatization between the date of arrival and the start of the procedure. […] The maintenance diet was supplied by Harlan Interfauna Ibérica S.L. (2018 Harlan Teklad Global Diets). Diet was provided to the animals ad libitum, but they were fasted overnight before the first cerulein injection, and food was replaced after the last cerulein injection. Tap water was supplied by CASSA (Servei d’Aigües de Sabadell) ad libitum. The animals were maintained in accordance with the European Directive for the Protection of Vertebrate Animals Used for Experimental and other Scientific Purposes (86/609/EU). Decree 214/1997 of 30th July. Ministry of agriculture, livestock and fishing of the Autonomous Government of Catalonia, Spain. Royal Decree 53/2013 of 1st February (Spain). All the experimental procedures were approved by the Ethical Committee on human and animal experimentation (CEEAH) of Universitat Autònoma de Barcelona (UAB) (procedure number: 4107) and by the Animal Experimentation Commission of the Generalitat de Catalunya (Catalan Government) (DAAM: 10146). The test item was dissolved in vehicle 10% 2-hydroxypropyl-β-cyclodextrin (CAS 128446-35-5) Sigma-Aldrich (Ref 332607). The vehicle was prepared the day before and kept at 4 °C. Pancreatitis induction: Mice (n = 41) were weighed, identified by a distinct number at the base of the tail, and fasted overnight. Cerulein (cerulein and cerulein + 22 groups) (50 μg/kg, prepared in 0.9% NaCl) or vehicle (0.9% NaCl) (control group) were intraperitoneally injected (V = 5 mL/kg) 12 consecutive times, at 1 h intervals (h = 0–11). Food was replaced after the last injection. A satellite experiment was designed where animals (n = 3) were distributed in control, cerulein, and cerulein + 22-treated groups. Pancreatitis was induced by seven injections of cerulein (or vehicle in the control group) at 1 h intervals (h = 0–6). Treatments: the test item was administered intraperitoneally in one injection to 22_03 (0.3 mg/kg) and 22_01 (0.1 mg/kg) groups at 14 h after the first cerulein injection. Animals from the control and cerulein groups received vehicle administration (10% 2-hydroxypropyl-β-cyclodextrin) (V = 10 mL/kg). Extra groups were treated 2 h after the first cerulein injection: 22 (0.3 mg/kg), control, and cerulein groups (10% 2-hydroxypropyl-β-cyclodextrin). Study end: 24 h after the first cerulein injection, animals were weighed and anesthetized with isoflurane. Blood was collected from the vena cava in an Eppendorf containing K2-EDTA and centrifuged at 10,000 rpm for 5 min for plasma collection. Plasma was stored at −80 °C until analysis. The mice were sacrificed by cervical dislocation and the pancreases were dissected and weighed. Pancreases from three animals were frozen in liquid N2 and stored at −80 °C until analysis. Pancreases from five mice were sectioned and one part was placed in 10% formalin and sent to Anapath (Granada, Spain) for histology analysis and the other was immediately placed in RNAse-free eppendorfs, frozen in N2, and stored at −80 °C for gene expression assays.
Pancreatic samples were treated with increasing grade alcohols and two xylol baths and embedded in paraffin. They were subsequently cut using a microtome and processed for staining. […]

Data set [2] is described as follows: Concentrations in plasma and pancreatic tissue in the efficacy study. The format is in vivo, C57BL/6 male mice. To be noted: 10 h post-administration; for concentration at 10 h: male, C57BL/6, mouse, intraperitoneal. The text has this:
During the experimental procedure, the animals were identified with a permanent marker (tail code numbers). […] They underwent a period of 7 days of acclimatization between the date of arrival and the start of the procedure. […] Diet was provided to the animals ad libitum, but they were fasted overnight before the first cerulein injection, and food was replaced after the last cerulein injection. Tap water was supplied by CASSA (Servei d’Aigües de Sabadell) ad libitum. […] Ministry of agriculture, livestock and fishing of the Autonomous Government of Catalonia, Spain. […] The vehicle was prepared the day before and kept at 4 °C. Pancreatitis induction: Mice (n = 41) were weighed, identified by a distinct number at the base of the tail, and fasted overnight. Cerulein (cerulein and cerulein + 22 groups) (50 μg/kg, prepared in 0.9% NaCl) or vehicle (0.9% NaCl) (control group) were intraperitoneally injected (V = 5 mL/kg) 12 consecutive times, at 1 h intervals (h = 0–11). Food was replaced after the last injection. A satellite experiment was designed where animals (n = 3) were distributed in control, cerulein, and cerulein + 22-treated groups. Pancreatitis was induced by seven injections of cerulein (or vehicle in the control group) at 1 h intervals (h = 0–6). […] Animals from the control and cerulein groups received vehicle administration (10% 2-hydroxypropyl-β-cyclodextrin) (V = 10 mL/kg). Extra groups were treated 2 h after the first cerulein injection: 22 (0.3 mg/kg), control, and cerulein groups (10% 2-hydroxypropyl-β-cyclodextrin). […] Blood was collected from the vena cava in an Eppendorf containing K2-EDTA and centrifuged at 10,000 rpm for 5 min for plasma collection. Plasma was stored at −80 °C until analysis. The mice were sacrificed by cervical dislocation and the pancreases were dissected and weighed. Pancreases from three animals were frozen in liquid N2 and stored at −80 °C until analysis. Pancreases from five mice were sectioned and one part was placed in 10% formalin and sent to Anapath (Granada, Spain) for histology analysis and the other was immediately placed in RNAse-free eppendorfs, frozen in N2, and stored at −80 °C for gene expression assays.

The mark [3] stands for this setting: Cerulein + 22 (0.3 mg/Kg), samples 1-5, score 0 (no changes) to 4 (very serious).

Turning to `O=C(NC12CC3CC(Cl)(CC(C1)c1ccccc13)C2)N[C@H]1CC[C@H](Oc2ccc(C(=O)O)cc2)CC1` [Compound 22, 4-[((1r,4r)-4-(3-(9-Chloro-5,6,8,9,10,11-hexahydro-7H-5,9:7,11-dimethanobenzo[9]annulen-7-yl)ureido)cyclohexyl)oxy]benzoic Acid], the “body weight change at the end of the study” value was “increased body weight” in data set [1] (22 0.1 mg/kg IP single dose, did not reach statistical significance) and “increased body weight” in data set [1] (22 0.3 mg/kg IP single dose, p < 0.01 vs Cerulein group). In addition, the “histologic score: Hemorrhage” value in data set [1] (Cerulein + 22 (0.1 mg/Kg), samples 1-5, score 0 (no changes) to 4 (very serious)) is listed as 0; in data set [1] (setting [3]) it was 0. The “histologic score: Mononuclear inflammatory cells” value in data set [1] (setting [3]) came to 0. For the same compound, in data set [1] (setting [3]), the “histologic score: Necrosis” value is recorded as 0. For the same compound, the “histologic analysis of pancreas, effect on cerulein-induced damage” value in data set [1] (both doses (0.1 and 0.3 mg/kg)) is “ameliorated cerulein-induced effects”; in data set [1] (higher dose (0.3 mg/kg)), “more efficiently reversed the pancreatic damage, edema, and neutrophil infiltration”. Also, the “concentration in pancreatic tissues” value in data set [2] (0.1 mg/kg IP) was “no amount of 22 was detected”. For the same compound, the concentration at 10 h in data set [2] (pancreas, 0.3 mg/kg IP, read-out: concentration in pancreas) was determined as 29.9 ng/g; in data set [2] (plasma, 0.1 mg/kg IP, read-out: plasma level), 14 nM; in data set [2] (plasma, 0.3 mg/kg IP, read-out: plasma level), 175 nM.

Source of the values: publication PMC8634379, “From the Design to the In Vivo Evaluation of Benzohomoadamantane-Derived Soluble Epoxide Hydrolase Inhibitors for the Treatment of Acute Pancreatitis” (Journal of Medicinal Chemistry, 2021).
